# Laboratory results: US4011390A, “Semi-synthetic aminocyclitol aminoglycoside antibiotics and methods for the preparation thereof” (Schering-Plough Corporation, priority 1974, dated 1977)
# Where two headings read alike, the source gives them in different places.
# Tests used:
# Format in all cases: cell-based
# Proteus rettgeri = experiment: Disc test, Bauer-Kirby technique with 10 Mcg. discs; settings: Providencia rettgeri
# Description: (§1) Disc Test Results (Replicate Tests) With The Mutamicins, Sisomicin and
# (§2) Bauer-Kirby Technique^1 With 10 Mcg. Discs
# (§3) ^1 Bauer, Kirby, Sherris and Turck, American Journal of Clinical
# Proteus airabilis = experiment: as above; settings: strain Harding
# Description: as §1, §2, §3
# Staphylococcus aureus = experiment: as above; settings: Staphylococcus aureus
# Description: as §1, §2, §3
# Bacillus subtilis = experiment: as above; settings: Bacillus subtilis, ATCC6633, strain ATCC 6633
# Description: as §1, §2, §3
# Pseudomonas aeruginosa = experiment: as above; settings: Pseudomonas aeruginosa
# Description: as §1, §2, §3
# Salmonella typhimurium = experiment: as above; settings: Salmonella enterica, Group B
# Description: as §1, §2, §3
# Streptococcus pyogenes = experiment: as above; settings: Streptococcus pyogenes
# Description: as §1, §2, §3
# Klebsiella pneumoniae [1] = experiment: as above; settings: Klebsiella pneumoniae
# Description: as §1, §2, §3
# Escherichia coli = experiment: as above; settings: Escherichia coli, read-out: Zone Size
# Description: as §1, §2, §3
# Providence 164 = experiment: as above; settings: strain 164
# Description: as §1, §2, §3
# Providence = experiment: Activity against resistant strains; settings: gentamicin, sisomicin, tobramycin resistant Providence
# Description: (§4) In many instances, bacterial resistance is related to the organism's ability to inactivate the antibacterial agent via enzymatic (biochemical) means. Some species inactivate aminoglycosides antibiotics by acetylating the antibacterial agent, others by phosphorylation and still others by adenylylating. Some strains have several different inactivating capabilities. Further, the inactivation reactions occur at a specific site or sites on the antibacterial agent. We have shown by the compounds of this invention that alteration of sites on the antibiotic molecule not directly involved in inactivation processes can nevertheless frustrate these inactivation processes. […] The tables illustrate that the mutamicins include compounds which are active against strains having different mechanisms of inactivation of gentamicin, sisomicin, kanamycin, neomycin and torbramycin. For example, some mutamicins are effective against strains of E. coli which contain adenylylating R factors such as E. coli W677/R55 and LA290/R55. These E. coli strains are resistant to gentamicin, sisomicin and torbramycin. Some are also effective against gentamicin, tobramycin and kanamycin resistant adenylylating strains of Klebsiella pneumoniae and also kanamycin, neomycin phosphorylating strains of E. coli and Klebsiella pneumoniae. Further, some mutamicins are effective against gentamicin and sisomicin resistant strains of Pseudomonas aeruginosa and gentamicin, sisomicin, tobramycin resistant Providence which is sensitive to kanamycin. Thus, the mutamicins afford a means for combatting strains of bacteria which have already developed a variety of mechanisms for resisting the action of many of the antibiotics known in the art or currently in commercial use.
# Klebsiella pneumoniae [2] = experiment: Activity against resistant strains; settings: gentamicin, tobramycin and kanamycin resistant adenylylating strains
# Description: as §4
# E. coli = experiment: Activity against resistant strains; settings: E. coli W677/R55 and LA290/R55
# Description: as §4
# [3] = ATCC10536, strain ATCC 10536, 10 Mcg. discs
# [4] = strain St. Michael 1574-1, 10 Mcg. discs
# [5] = strain Swidinsky 4195, 10 Mcg. discs
SMILES,zone of inhibition at 10 µg/disc (Proteus rettgeri) [mm],zone of inhibition at 10 µg/disc (Proteus airabilis) [mm],"zone of inhibition at 10 µg/disc (Staphylococcus aureus; ATCC6538P, strain ATCC 6538P) [mm]",zone of inhibition at 10 µg/disc (Staphylococcus aureus; strain 59N) [mm],zone of inhibition at 10 µg/disc (Staphylococcus aureus; strain Wood) [mm],zone of inhibition at 10 µg/disc (Staphylococcus aureus; strain Ziegler) [mm],zone of inhibition at 10 µg/disc (Bacillus subtilis) [mm],zone of inhibition at 10 µg/disc (Pseudomonas aeruginosa; strain Capetown 18) [mm],zone of inhibition at 10 µg/disc (Pseudomonas aeruginosa; strain D-2) [mm],zone of inhibition at 10 µg/disc (Pseudomonas aeruginosa; strain St. Michael 413) [mm],zone of inhibition at 10 µg/disc (Pseudomonas aeruginosa; strain St. Michael 836) [mm],zone of inhibition at 10 µg/disc (Pseudomonas aeruginosa; strain St. Michael 1262) [mm],zone of inhibition at 10 µg/disc (Pseudomonas aeruginosa; strain St. Michael 1395) [mm],zone of inhibition at 10 µg/disc (Pseudomonas aeruginosa; strain Stone 20) [mm],zone of inhibition at 10 µg/disc (Pseudomonas aeruginosa; strain Stone 39) [mm],zone of inhibition at 10 µg/disc (Pseudomonas aeruginosa; strain Stone 130) [mm],zone of inhibition at 10 µg/disc (Pseudomonas aeruginosa; strain Stone 138) [mm],zone of inhibition at 10 µg/disc (Salmonella typhimurium) [mm],zone of inhibition at 10 µg/disc (Klebsiella pneumoniae [1]; strain Ad 17) [mm],zone of inhibition at 10 µg/disc (Klebsiella pneumoniae [1]; strain Ad 18) [mm],further results
CN[C@@H]1[C@@H](O)[C@@H](O[C@@H]2C[C@H](O[C@H]3OC(CN)=CC[C@H]3N)[C@@H](N)C[C@H]2N)OC[C@]1(C)O [Mutamicin 2],24,26,27,29,29,28,33,22,26,27,28,27,28,33,27,25,23,27,23,25,"zone of inhibition at 10 µg/disc (Staphylococcus aureus; strain 1118): 14 mm; zone of inhibition at 10 µg/disc (Staphylococcus aureus; strain Grey): 16 mm; zone of inhibition at 10 µg/disc (Pseudomonas aeruginosa; strain St. Michael 762): 26 mm; zone of inhibition at 10 µg/disc (Streptococcus pyogenes; strain B-Cruz): 17 mm; zone of inhibition at 10 µg/disc (Streptococcus pyogenes; strain C): 15 mm; zone of inhibition at 10 µg/disc (Klebsiella pneumoniae [1]; strain Georgetown 3020): 21 mm; zone of inhibition at 10 µg/disc (Klebsiella pneumoniae [1]; strain Georgetown 3694): 22 mm; zone of inhibition at 10 µg/disc (Escherichia coli; [3]): 28 mm; zone of inhibition at 10 µg/disc (Escherichia coli; strain 589, 10 Mcg. discs): 24 mm; zone of inhibition at 10 µg/disc (Escherichia coli; strain JR66, 10 Mcg. discs): 26 mm; zone of inhibition at 10 µg/disc (Escherichia coli; strain JR88, 10 Mcg. discs): 22 mm; zone of inhibition at 10 µg/disc (Escherichia coli; strain JR90, 10 Mcg. discs): 25 mm; zone of inhibition at 10 µg/disc (Escherichia coli; strain LA290/R55, 10 Mcg. discs): 21 mm; zone of inhibition at 10 µg/disc (Escherichia coli; [4]): 27 mm; zone of inhibition at 10 µg/disc (Escherichia coli; [5]): 25 mm; zone of inhibition at 10 µg/disc (Escherichia coli; strain W677/R55, 10 Mcg. discs): 21 mm; zone of inhibition at 10 µg/disc (Providence 164): 25 mm"
CN[C@@H]1[C@@H](O)[C@@H](O[C@H]2[C@H](N)[C@H](O)[C@H](N)[C@@H](O[C@H]3OC(CN)=CC[C@H]3N)[C@@H]2O)OC[C@]1(C)O [Mutamicin 4],14,21,24,26,26,24,29,16,17,19,19,19,19,28,20,14,11,25,25,24,"zone of inhibition at 10 µg/disc (Staphylococcus aureus; strain 1118): 14 mm; zone of inhibition at 10 µg/disc (Staphylococcus aureus; strain Grey): 13 mm; zone of inhibition at 10 µg/disc (Streptococcus pyogenes; strain 27): 12 mm; zone of inhibition at 10 µg/disc (Streptococcus pyogenes; strain C): 12 mm; zone of inhibition at 10 µg/disc (Klebsiella pneumoniae [1]; strain Ad 22): 26 mm; zone of inhibition at 10 µg/disc (Klebsiella pneumoniae [1]; strain Georgetown 3020): 19 mm; zone of inhibition at 10 µg/disc (Klebsiella pneumoniae [1]; strain Georgetown 3694): 19 mm; zone of inhibition at 10 µg/disc (Escherichia coli; [3]): 27 mm; zone of inhibition at 10 µg/disc (Escherichia coli; strain 589, 10 Mcg. discs): 26 mm; zone of inhibition at 10 µg/disc (Escherichia coli; strain Baker 2, 10 Mcg. discs): 24 mm; zone of inhibition at 10 µg/disc (Escherichia coli; strain JR66, 10 Mcg. discs): 18 mm; zone of inhibition at 10 µg/disc (Escherichia coli; strain JR88, 10 Mcg. discs): 16 mm; zone of inhibition at 10 µg/disc (Escherichia coli; strain JR90, 10 Mcg. discs): 22 mm; zone of inhibition at 10 µg/disc (Escherichia coli; [4]): 25 mm; zone of inhibition at 10 µg/disc (Escherichia coli; [5]): 17 mm; zone of inhibition at 10 µg/disc (Escherichia coli; strain W677/R55, 10 Mcg. discs): 13 mm; zone of inhibition at 10 µg/disc (Providence 164): 0 mm"
CN[C@@H]1[C@@H](O)[C@@H](O[C@@H]2[C@@H](N)[C@H](O[C@H]3OC(CN)=CC[C@H]3N)[C@@H](N)C[C@H]2N)OC[C@]1(C)O [Mutamicin 5],13,19,21,23,25,23,28,0,0,11,10,10,0,16,12,0,0,22,20,21,"zone of inhibition at 10 µg/disc (Klebsiella pneumoniae [1]; strain Georgetown 3020): 0 mm; zone of inhibition at 10 µg/disc (Klebsiella pneumoniae [1]; strain Georgetown 3694): 0 mm; zone of inhibition at 10 µg/disc (Escherichia coli; [3]): 24 mm; zone of inhibition at 10 µg/disc (Escherichia coli): 18 mm; zone of inhibition at 10 µg/disc (Escherichia coli; strain JR66, 10 Mcg. discs): 0 mm; zone of inhibition at 10 µg/disc (Escherichia coli; strain JR88, 10 Mcg. discs): 0 mm; zone of inhibition at 10 µg/disc (Escherichia coli; strain JR90, 10 Mcg. discs): 0 mm; zone of inhibition at 10 µg/disc (Escherichia coli; [4]): 22 mm; zone of inhibition at 10 µg/disc (Escherichia coli; [5]): 0 mm; zone of inhibition at 10 µg/disc (Escherichia coli; strain W677/R55, 10 Mcg. discs): 10 mm; zone of inhibition at 10 µg/disc (Providence 164): 9 mm"
NC[C@H]1O[C@H](O[C@H]2[C@H](O)[C@@H](O[C@H]3O[C@H](CO)[C@@H](O)[C@H](N)[C@H]3O)[C@H](N)C[C@@H]2N)[C@H](O)[C@@H](O)[C@@H]1O [kanamycin],,,,,,,,,,,,,,,,,,,,,activity against resistant Providence (Providence): sensitive; activity against resistant adenylylating strains (Klebsiella pneumoniae [2]): resistant
NC[C@H]1O[C@H](O[C@H]2[C@H](O)[C@@H](O[C@H]3O[C@H](CO)[C@@H](O)[C@H](N)[C@H]3O)[C@H](N)C[C@@H]2N)[C@H](N)C[C@@H]1O [tobramycin],,,,,,,,,,,,,,,,,,,,,activity against resistant Providence (Providence): resistant; activity against resistant adenylylating strains (Klebsiella pneumoniae [2]): resistant; activity against strains containing adenylylating R factors (E. coli): resistant
